Source: patent US20210238139A1, “MODULATORS OF TRYPTOPHAN CATABOLISM” (E-Therapeutics PLC, priority 2018, published 2021)

Experiments:
SK-OV-3 cells = assay: Effect of compounds on tryptophan catabolism in SK-OV-3 cell line (inhibition of kynurenine production, LC-MS/MS); assay type: cell-based; details: for IC50: Homo sapiens, SK-OV-3, 24 h, SK-OV-3 cell line, 24 h incubation, kynurenine in supernatant by LC-MS/MS, read-out: IC50 Ranges (ic50 values for inhibition of Kynurenine production)
Outline: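 Kynurenine in supernatants quantified by LC-MS/MS after 24 h compound exposure (37 °C; top 30 μM, eight 3-fold steps, duplicate) in DMEM F-12 containing 6 mg/mL L-tryptophan. Cells pre-plated overnight in McCoy's 5A with 10% FBS. Viability checked in parallel by ATP luminescence.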

TDO2 enzyme = molecular target: T1, TDO2 enzyme (Homo sapiens, UniProt P48775); assay: TDO2 enzyme inhibition assay (hTDO2 assay kit, NFK-green); details: TDO2 enzyme 50 nM, tryptophan 200 μM, top concentration 30 μM; read-out: TDO2 Biochemical assay IC50
T1 construct: purchased Netherlands Translational Research Center B.V. NTRC-hTDO-1K
Protocol: The effect of compounds on TDO2 enzymatic activity was assess by use of an hTDO2 assay kit (Netherlands Translational Research Center B.V., Cat #NTRC-hTDO-1K). TDO2 enzyme and tryptophan substrate are diluted in assay buffer. Compounds are tested at 8 consecutive 3-fold dilutions starting from 30 μM. 267 nL of compound is added per well of a 384-well plate followed by addition of 10 μL of assay buffer. TDO2 enzyme is added at a final concentration of 50 nM and pre-incubated for 60 min at room temperature in the dark. Tryptophan substrate solution is then added at final concentration of 200 μM to all wells and the plate incubated for 15 min at RT in the dark. Finally NFK-green reagent is added at ⅕ of total reaction volume and incubated for 4 h at RT in the dark. After incubation fluorescence is measured at Ex405 nm-Em535 nm using EnVision plate reader.
(§1) IC50 values are determined using GraphPad Prism software 5.04 for Windows by plotting percent of inhibition against log 10 concentrations of compounds using a four-parametric sigmoidal curve with a variable slope.

[1] = test system: monocyte-derived dendritic cells; assay: Effect of compounds on tryptophan catabolism in monocyte-derived dendritic cells (kynurenine production); assay type: cell-based; details: Homo sapiens, Dendritic cell; dendritic cells triggered with LPS and IFNγ, 24 h with compound
Protocol: (§2) Peripheral blood mononuclear cells are isolated from buffy coats from healthy volunteers by Lymphoprep density gradient centrifugation, followed by lysis of residual erythrocytes with isotonic buffer solution of ammonium chloride. CD14+ cells are isolated by positive selection using MACS® technology and CD14 MicroBeads (Miltenyi Biotec) according to manufacturer's instructions. The isolated monocytes are differentiated into dendritic cells by incubation for 5 days in RPMI-1640 medium supplemented with 10% fetal bovine serum (FBS), 50 ng/mL GM-CSF and 35 ng/mL IL-4. After 5 days the DCs are seeded in 96-well plates in DMEM supplemented with 10% charcoal stripped FBS, GM-CSF and IL-4. The following day cells are triggered with LPS and IFNγ. After 24 h of incubation medium is replaced with DMEM F-12 medium supplemented with 6 mg/mL L-tryptophan and 10% charcoal stripped FBS. Compounds are added to the cells and incubated for 24 h at 37° C., 5% CO2, 95% humidity. Compounds are tested at 7 consecutive 4-fold dilutions starting from 30 μM in duplicate.
(§3) At the end of incubation concentration of kynurenine in cell supernatants is determined by LC-MS/MS. In parallel, cell viability is assessed by measurement of ATP by use of CellTiter Glo assay (Promega) according to manufacturer's protocol.
Inhibition of Kyn production is calculated using the following formula:
(1−(Kyn conc. cmpd.−Kyn conc. medium)/(Kyn conc. medium with cells−Kyn conc. medium))·100
IC50 values are determined using GraphPad Prism software 5.04 for Windows, by plotting percent of inhibition against log 10 concentrations of compounds using a four-parametric sigmoidal curve with a variable slope.

[2] = test system: monocyte-derived dendritic cells; assay: Cell viability / cytotoxicity in monocyte-derived dendritic cells (ATP, CellTiter Glo); assay type: cell-based, human; details: 24 h, unit assumed
Protocol: as §2, §3
Cell viability results are analysed in Microsoft Excel and expressed as fold change over untreated control.

IDO1 enzyme = molecular target: T2, IDO1 enzyme (Homo sapiens, UniProt P14902); assay: IDO1 enzyme inhibition assay (hIDO assay kit, NFK-green); details: IDO1 enzyme 25 nM, tryptophan 100 μM, top concentration 30 μM; read-out: IDO1 Biochemical assay IC50
T2 construct: purchased Netherlands Translational Research Center B.V. NTRC-hIDO-1K
Protocol: The effect of compounds on IDO1 enzymatic activity was assessed by use of a hIDO assay kit (Netherlands Translational Research Center B.V., Cat #NTRC-hIDO-1K). IDO1 enzyme and tryptophan substrate are diluted in assay buffer. Compounds are tested at 8 consecutive 3-fold dilutions starting from 30 μM. 267 nL of compound is added per well of a 384-well plate followed by addition of 10 μL of assay buffer. IDO1 enzyme is added at a final concentration of 25 nM and pre-incubated for 30 min at room temperature in the dark. Tryptophan substrate solution is then added at final concentration of 100 μM to all wells and the plate incubated for 60 min at RT in the dark. Finally NFK-green reagent is added at ⅕ of total reaction volume and incubated for 4 h at RT in the dark. After incubation fluorescence is measured at Ex405 nm-Em535 nm using EnVision plate reader.
as §1

[3] = test system: IDO1 protein in SK-OV-3 cells; assay: Effect of compounds on IDO1 expression in SK-OV-3 cell line (Western analysis, normalised to GAPDH); assay type: cell-based; details: 24 hours exposure
Protocol: SK-OV-3 cells are seeded in 24-well plates in McCoy's 5A medium supplemented with 10% FBS at density of 250000 cells per well and incubated overnight at 37° C., 5% CO2, 95% humidity. The following day growth medium is replaced with DMEM F-12 medium containing 6 mg/mL L-tryptophan. Compounds are added to the wells and the plate is incubated for 24 h at 37° C., 5% CO2, 95% humidity. At the end of incubation medium is removed, cells are washed and then lysed in RIPA buffer. Protein concentrations in the samples are determined using BCA method (Thermo Scientific) and adjusted to 0.5 mg/mL. Western analysis is performed on the Wes system (Protein Simple) using IDO1 (Cell Signalling; Cat #12006S) and GAPDH (Abcam, Cat #ab9485) antibodies. Expression of IDO1 is normalised to GAPDH.

T2 sequence (P14902 whole entry): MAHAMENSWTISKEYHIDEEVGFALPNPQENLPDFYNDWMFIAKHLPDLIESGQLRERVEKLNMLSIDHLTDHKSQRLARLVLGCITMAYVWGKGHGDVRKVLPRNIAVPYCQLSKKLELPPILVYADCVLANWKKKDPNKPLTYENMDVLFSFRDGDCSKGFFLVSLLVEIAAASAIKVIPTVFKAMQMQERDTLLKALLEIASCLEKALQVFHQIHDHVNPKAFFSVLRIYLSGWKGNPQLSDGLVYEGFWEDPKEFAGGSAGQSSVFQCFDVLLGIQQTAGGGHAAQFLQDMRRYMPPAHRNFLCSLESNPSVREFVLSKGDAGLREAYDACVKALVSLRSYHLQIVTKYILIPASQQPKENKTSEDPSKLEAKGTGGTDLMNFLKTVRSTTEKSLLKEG
T1 sequence (P48775 whole entry): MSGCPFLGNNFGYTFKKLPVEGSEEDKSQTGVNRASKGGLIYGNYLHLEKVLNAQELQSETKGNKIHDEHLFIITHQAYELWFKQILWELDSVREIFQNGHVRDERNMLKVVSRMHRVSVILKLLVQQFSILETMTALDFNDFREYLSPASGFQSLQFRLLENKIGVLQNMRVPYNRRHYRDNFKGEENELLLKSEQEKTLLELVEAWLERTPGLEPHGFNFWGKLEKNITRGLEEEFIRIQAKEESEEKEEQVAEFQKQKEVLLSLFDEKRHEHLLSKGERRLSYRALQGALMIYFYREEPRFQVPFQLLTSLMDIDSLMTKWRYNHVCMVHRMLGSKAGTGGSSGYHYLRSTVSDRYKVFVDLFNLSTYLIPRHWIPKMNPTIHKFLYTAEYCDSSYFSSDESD

Row | Compound | IC50 (SK-OV-3 cells) [nM] | IC50 (TDO2 enzyme) [nM] | IC50 [1] [nM] | Cell viability at 30 uM (% of untreated control) [2] [%] | IC50 (IDO1 enzyme) [nM] | inhibition of kynurenine production by SKOV-3 (FIG. 1b) (SK-OV-3 cells; SKOV-3 cells, 24 hours exposure) | reduction in IDO1 protein in SKOV-3 cells (FIG. 1a) [3]
1 | O=C(Nc1ccc(Cl)cc1)N(Cc1cccc(C(F)(F)F)c1)C1CCC1 [Compound 90, 3-(4-chlorophenyl)-1-cyclobutyl-1-[[3-(trifluoromethyl)-phenyl]methyl]urea] | < 100 | > 30000 | 66 | 67 |  |  | 
2 | N#Cc1cccc(CN(C(=O)Nc2ccc(Cl)cc2)C2CCCC2)c1 [Compound 147, 3-(4-chlorophenyl)-1-[(3-cyanophenyl)methyl]-1-cyclopentyl-urea] | < 100 | > 30000 | 70 | 122 |  |  | 
3 | Cc1ccc(CN(C(=O)Nc2ccc(C#N)cc2)C2CCCC2)o1 [Compound 80, 3-(4-cyanophenyl)-1-cyclopentyl-1-[(5-methyl-2-furyl)methyl]urea] | < 100 | > 30000 | 26 | 112 | > 30000 |  | 
4 | Cc1ccc(CN(C(=O)Nc2ccc(Cl)cc2)C2CCCC2)o1 [Compound 137, 3-(4-chlorophenyl)-1-cyclopentyl-1-[(5-methyl-2-furyl)methyl]urea] | < 100 | > 30000 | 40 | 88 | > 30000 |  | 
5 | Cc1ncc(CN(C(=O)Nc2ccc(Cl)cc2)C2CCCC2)o1 [Compound 144, 3-(4-chlorophenyl)-1-cyclopentyl-1-[(2-methyloxazol-5-yl)methyl]urea] | 100 to 500 | > 30000 | 380 | 109 | > 30000 |  | 
6 | C#Cc1ccc(NC(=O)N(Cc2ccc(C)o2)C2CCCC2)cc1 [Compound 102, 1-cyclopentyl-3-(4-ethynylphenyl)-1-[(5-methyl-2-furyl)methyl]urea] | < 100 | > 30000 |  |  |  | dose-dependent inhibition of kynurenine production | dose-dependent reduction in IDO1 protein
7 | Cc1ccc(CN(C(=O)Nc2ccc(Cl)cc2)C2CCC2)o1 [Compound 83, 3-(4-chlorophenyl)-1-cyclobutyl-1-[(5-methyl-2-furyl)methyl]urea] | < 100 | > 30000 | 130 | 89 | > 30000 |  | 
8 | O=C(Nc1ccc(Cl)cc1)N(Cc1ccnc(C(F)(F)F)c1)C1CCCC1 [Compound 148, 3-(4-chlorophenyl)-1-cyclopentyl-1-[[2-(trifluoromethyl)-4-pyridyl]methyl]urea] | < 100 |  | 150 | 103 |  |  | 
